Data on 24 compounds can be found in patent publication US10053458B2, “Pyrimidine-2,4-diamine derivative and anticancer pharmaceutical composition comprising same as effective ingredient” (KOREA RESEARCH INSTITUTE OF CHEMICAL TECHNOLOGY, priority 2014, dated 2018).

The test system of one assay is H2228. The experiment in a line: Cancer cell proliferation inhibition (SRB/MTS), H2228. The following applies: Homo sapiens, NCI-H2228, 72 h, read-out: H2228 GI50.
The subject of the next assay is H3122. The experiment in a line: Cancer cell proliferation inhibition (SRB/MTS), H3122. The following applies: Homo sapiens, NCI-H3122, 72 h, read-out: H3122 GI50.
In another assay the test system is BaF3 EML4-ALK WT cells. The experiment in a line: Cytotoxicity on BaF3 cell transfected with EML4-ALK WT (WST-1). The following applies: Ba/F3 EML4-ALK, 72 h, read-out: BaF3 EML4-ALK WT, IC50 of the cytotoxicity.

Bounds are passed on as bounds.

Description for H2228: (§1) Cancer cell lines used in the experiments were all human-derived cancer cell lines, specifically H2228 and H3122, which are non-small cell lung cancer cell lines.
(§2) The cancer cell proliferation inhibition was measured using the MTS assay as follows. […] Each culture medium was placed in an incubator for 4 hours, taken out and left at room temperature for 10 minutes.
Description for H3122: as §1, §2

As a reminder, the GI50 is the concentration that inhibits growth by half. The IC50 is the concentration at which inhibition is half-maximal. For the compound `CCN1CCc2cc(Nc3ncc(Cl)c(Nc4ccccc4S(=O)(=O)C(C)C)n3)c(OC(C)C)cc2C1(C)C` [Example 79, 5-chloro-N4-(2-(isopropylsulfonyl)phenyl)-N2-(2-ethyl-7-isopropoxy-1,1-dimethyl-1,2,3,4-tetrahydroisoquinolin-6-yl)pyrimidine-2,4-diamine], the GI50 in the assay on H2228 and with H3122 was < 50 nM in each case. Further, the IC50 in the assay with BaF3 EML4-ALK WT cells was < 50 nM.
With `COc1cc2c(cc1Nc1ncc(Cl)c(Nc3ccccc3S(=O)(=O)C(C)C)n1)CN(C(=O)CO)CC2(C)C` [Example 95], the concentration for 50% growth inhibition (GI50) in the assay on H2228 and with H3122 was < 50 nM in each case. In addition, in the assay with BaF3 EML4-ALK WT cells, the IC50 was < 50 nM.
With `COc1c(Nc2ncc(Cl)c(Nc3ccccc3S(=O)(=O)C(C)C)n2)cc2c(c1Cl)C(C)(C)NCC2` [Example 90, 5-chloro-N4-(2-(isopropylsulfonyl)phenyl)-N2-(8-chloro-7-methoxy-1,1-dimethyl-1,2,3,4-tetrahydroisoquinolin-6-yl)pyrimidine-2,4-diamine], the concentration for 50% growth inhibition (GI50) in the assay on H2228 and in the assay with H3122 was < 50 nM in each case. Besides, the IC50 in the assay on BaF3 EML4-ALK WT cells was < 50 nM.
Take `COc1cc2c(cc1Nc1ncc(Cl)c(Nc3ccccc3S(=O)(=O)C(C)C)n1)CNC2` [Example 1, 5-chloro-N4-(2-(isopropylsulfonyl)phenyl)-N2-(6-methoxyisoindolin-5-yl)pyrimidine-2,4-diamine]: the GI50 is 15 nM in the assay on H2228 and < 50 nM with H3122. Also, the IC50 in the assay on BaF3 EML4-ALK WT cells was < 50 nM.
Regarding `CCN1Cc2cc(Nc3ncc(Cl)c(Nc4ccccc4S(=O)(=O)C(C)C)n3)c(OC(C)C)cc2C(C)(C)C1` [Example 82, 5-chloro-N4-(2-(isopropylsulfonyl)phenyl)-N2-(2-ethyl-6-isopropoxy-4,4-dimethyl-1,2,3,4-tetrahydroisoquinolin-7-yl)pyrimidine-2,4-diamine], the 50% growth inhibitory concentration (GI50) with H2228 and in the assay on H3122 was < 50 nM in each case. Also, the IC50 in the assay on BaF3 EML4-ALK WT cells is < 50 nM.
For the compound `COc1cc2c(cc1Nc1ncc(Cl)c(Nc3ccccc3S(=O)(=O)C(C)C)n1)C1(CCCC1)CN(C(=O)C(F)(F)F)C2` [Example 13, 1-(6-(5-chloro-4-(2-(isopropylsulfonyl)phenylamino)pyrimidin-2-yl)amino-7-methoxy-1H-spiro[cyclopentane-1,4-isoquinoline]-2(3H)-yl)-2,2,2-trifluoroethane-1-one], the GI50 in the assay with H2228 and in the assay with H3122 was < 50 nM each time. In addition, the half-inhibitory concentration (IC50) with BaF3 EML4-ALK WT cells was < 50 nM.
Take `COc1cc2c(cc1Nc1ncc(Cl)c(Nc3ccccc3S(=O)(=O)C(C)C)n1)CCNC2C(=O)O` (stereo not drawn) [Example 76, 6-(5-chloro-4-(2-(isopropylsulfonyl)phenylamino)pyrimidin-2-yl)amino-7-methoxy-1,2,3,4-dihydroisoquinoline-1-carboxylic acid]: the 50% growth inhibitory concentration (GI50) with H2228 and in the assay on H3122 was < 50 nM in each case. Moreover, the half-maximal inhibitory concentration (IC50) in the assay on BaF3 EML4-ALK WT cells is < 50 nM.
Turning to `CCC1(CC)NCCc2cc(Nc3ncc(Cl)c(Nc4ccccc4S(=O)(=O)C(C)C)n3)c(OC)cc21` [Example 74, 5-chloro-N4-(2-(isopropylsulfonyl)phenyl)-N2-(1,1-diethyl-7-methoxy-1,2,3,4-tetrahydroisoquinolin-6-yl)pyrimidine-2,4-diamine], the GI50 with H2228 and in the assay on H3122 was < 50 nM each time. For the same compound, the IC50 in the assay with BaF3 EML4-ALK WT cells is < 50 nM.
For the compound `CCOc1cc2c(cc1Nc1ncc(Cl)c(Nc3ccccc3S(=O)(=O)C(C)C)n1)CCNC2(C)C` [Example 99, 5-chloro-N4-(2-(isopropylsulfonyl)phenyl)-N2-(7-ethoxy-1,1-dimethyl-1,2,3,4-tetrahydroisoquinolin-6-yl)pyrimidine-2,4-diamine], the GI50 in the assay on H2228 and in the assay with H3122 was < 50 nM in each case. In addition, the IC50 with BaF3 EML4-ALK WT cells is < 50 nM.
`CCC1(C)NCCc2cc(Nc3ncc(Cl)c(Nc4ccccc4S(=O)(=O)C(C)C)n3)c(OC)cc21` (stereo not drawn) [Example 73, 5-chloro-N4-(2-(isopropylsulfonyl)phenyl)-N2-(l-ethyl-7-methoxy-1-methyl-1,2,3,4-tetrahydroisoquinolin-6-yl)pyrimidine-2,4-diamine]: the GI50 in the assay on H2228 and with H3122 was < 50 nM each time. Moreover, the IC50 with BaF3 EML4-ALK WT cells is < 50 nM.
For the compound `COc1cc2c(cc1Nc1ncc(Cl)c(Nc3ccccc3S(=O)(=O)C(C)C)n1)CNCC21CCCC1` [Example 83, 5-chloro-N4-(2-(isopropylsulfonyl)phenyl)-N2-(6-methoxy-2,3-dihydro-1H-spiro(cyclopentane-1,4-isoquinolin)-7-yl)pyrimidine-2,4-diamine], the GI50 in the assay with H2228 and in the assay on H3122 was < 50 nM throughout. Moreover, the IC50 in the assay with BaF3 EML4-ALK WT cells was < 50 nM.
For `COc1cc2c(cc1Nc1ncc(Cl)c(Nc3ccccc3S(=O)(=O)C(C)C)n1)CNCC2(C)C` [Example 75, 5-chloro-N4-(2-(isopropylsulfonyl)phenyl)-N2-(6-methoxy-4,4-dimethyl-1,2,3,4-tetrahydroisoquinolin-7-yl)pyrimidine-2,4-diamine], the 50% growth inhibitory concentration (GI50) with H2228 and in the assay on H3122 was < 50 nM in each case. In addition, the IC50 in the assay with BaF3 EML4-ALK WT cells was < 50 nM.
Consider `CCOc1cc2c(cc1Nc1ncc(Cl)c(Nc3ccccc3S(=O)(=O)C(C)C)n1)CN(CC)CC2(C)C` [Example 81, 5-chloro-N4-(2-(isopropylsulfonyl)phenyl)-N2-(6-ethoxy-2-ethyl-4,4-dimethyl-1,2,3,4-tetrahydroisoquinolin-7-yl)pyrimidine-2,4-diamine], for which the 50% growth inhibitory concentration (GI50) in the assay on H2228 and in the assay with H3122 was < 50 nM each time. Moreover, in the assay with BaF3 EML4-ALK WT cells, the IC50 is < 50 nM.
With `COc1cc2c(cc1Nc1ncc(Cl)c(Nc3ccccc3S(=O)(=O)C(C)C)n1)CCCNC2(C)C` [Example 104, 5-chloro-N4-(2-(isopropylsulfonyl)phenyl)-N2-(8-methoxy-1,1-dimethyl-2,3,4,5-tetrahydro-1H-benzo[c]azepin-7-yl)pyrimidine-2,4-diamine], the 50% growth inhibitory concentration (GI50) in the assay with H2228 and with H3122 was < 50 nM in each case. Also, the IC50 in the assay with BaF3 EML4-ALK WT cells is < 50 nM.
Regarding `COc1cc2c(cc1Nc1ncc(Cl)c(Nc3ccccc3S(=O)(=O)C(C)C)n1)CCN(C1CCNCC1)C2` [Example 24], the concentration for 50% growth inhibition (GI50) in the assay on H2228 and in the assay with H3122 was < 50 nM each time. Besides, the 50% inhibitory concentration (IC50) with BaF3 EML4-ALK WT cells was < 50 nM.
On to `CC(C)Oc1cc2c(cc1Nc1ncc(Cl)c(Nc3ccccc3S(=O)(=O)C(C)C)n1)CCN(C(=O)C(F)(F)F)C2` [Example 17, 1-(6-(5-chloro-4-(2-(isopropylsulfonyl)phenylamino)pyrimidin-2-yl)amino-7-isopropoxy-3,4-dihydroisoquinolin-2(1H)-yl)-2,2,2-trifluoroethane-1-one], for which the concentration for 50% growth inhibition (GI50) in the assay on H2228 and in the assay with H3122 was < 50 nM throughout. The 50% inhibitory concentration (IC50) with BaF3 EML4-ALK WT cells is < 50 nM.
In the case of `COc1cc2c(c(Br)c1Nc1ncc(Cl)c(Nc3ccccc3S(=O)(=O)C(C)C)n1)CCNC2(C)C` [Example 87, 5-chloro-N4-(2-(isopropylsulfonyl)phenyl)-N2-(5-bromo-7-methoxy-1,1-dimethyl-1,2,3,4-tetrahydroisoquinolin-6-yl)pyrimidine-2,4-diamine], the GI50 in the assay with H2228 and with H3122 was < 50 nM throughout. Further, in the assay on BaF3 EML4-ALK WT cells, the IC50 is < 50 nM.
Consider `COc1cc2c(cc1Nc1ncc(Cl)c(Nc3ccccc3S(=O)(=O)C(C)C)n1)CCNCC2(C)C` [Example 105, 5-chloro-N4-(2-(isopropylsulfonyl)phenyl)-N2-(8-methoxy-1,1-dimethyl-2,3,4,5-tetrahydro-1H-benzo[d]azepin-7-yl)pyrimidine-2,4-diamine], for which the 50% growth inhibitory concentration (GI50) with H2228 and in the assay with H3122 was < 50 nM in each case. Further, the 50% inhibitory concentration (IC50) in the assay on BaF3 EML4-ALK WT cells is < 50 nM.
In the case of `COc1cc2c(cc1Nc1ncc(Cl)c(Nc3ccccc3S(=O)(=O)C(C)C)n1)C1CNCC(=O)N1CC2(C)C` (stereo not drawn) [Example 85], the GI50 in the assay with H2228 and in the assay with H3122 was < 50 nM in each case. For the same compound, in the assay on BaF3 EML4-ALK WT cells, the 50% inhibitory concentration (IC50) is < 50 nM.
For the compound `COc1cc2c(cc1Nc1ncc(Cl)c(Nc3ccccc3S(=O)(=O)C(C)C)n1)C1(CCCCC1)CNC2` [Example 16, 5-chloro-N4-(2-(isopropylsulfonyl)phenyl)-N2-(7-methoxy-2,3-dihydro-1H-spiro[cyclohexane-1,4-isoquinoline]-6-yl)pyrimidine-2,4-diamine], the 50% growth inhibitory concentration (GI50) in the assay with H2228 and with H3122 was < 50 nM each time. Moreover, in the assay with BaF3 EML4-ALK WT cells, the IC50 was < 50 nM.
In the case of `COc1cc2c(cc1Nc1ncc(Cl)c(Nc3ccccc3S(=O)(=O)C(C)C)n1)CCNC2C(C)C` (stereo not drawn) [Example 28], the GI50 is < 50 nM in the assay on H2228 and 21 nM in the assay on H3122. Besides, the 50% inhibitory concentration (IC50) with BaF3 EML4-ALK WT cells turned out to be 13 nM.
`COc1cc2c(cc1Nc1ncc(Cl)c(Nc3ccccc3S(=O)(=O)C(C)C)n1)CCN(C(=O)C(F)(F)F)C2(C)C` [Example 32, 1-(6-(5-chloro-4-(2-(isopropylsulfonyl)phenylamino)pyrimidin-2-yl)amino-7-methoxy-1,1-dimethyl-3,4-dihydroisoquinolin-2(1H)-yl)-2,2,2-trifluoroethane-1-one]: the concentration for 50% growth inhibition (GI50) in the assay with H2228 and in the assay on H3122 was < 50 nM in each case. In addition, in the assay with BaF3 EML4-ALK WT cells, the 50% inhibitory concentration (IC50) was < 50 nM.
Take `COc1cc2c(cc1Nc1ncc(Cl)c(Nc3ccccc3S(=O)(=O)C(C)C)n1)CNC2(C)C` [Example 106, 5-chloro-N4-(2-(isopropylsulfonyl)phenyl)-N2-(6-methoxy-1,1-dimethylisoindolin-5-yl)pyrimidine-2,4-diamine]: the GI50 in the assay with H2228 and in the assay on H3122 was < 50 nM throughout. For the same compound, the half-maximal inhibitory concentration (IC50) in the assay on BaF3 EML4-ALK WT cells was < 50 nM.
Consider `COc1cc2c(cc1Nc1ncc(Cl)c(Nc3ccccc3S(=O)(=O)C(C)C)n1)CN(C)CC2(C)C` [Example 91, 5-chloro-N4-(2-(isopropylsulfonyl)phenyl)-N2-(6-methoxy-2,4,4-trimethyl-1,2,3,4-tetrahydroisoquinolin-7-yl)pyrimidine-2,4-diamine], for which the GI50 in the assay on H2228 and in the assay with H3122 was < 50 nM each time. The half-maximal inhibitory concentration (IC50) with BaF3 EML4-ALK WT cells is < 50 nM.
